Results on 1 compound are retold here after patent US20250302765A1, “TRIACETYL ANDROGRAPHOLIDE NANOCRYSTAL AND PREPARATION METHOD AND APPLICATION THEREOF” (Henan University, priority 2024, published 2025).

A short description of series [1]: In-vitro release degree in simulated pulmonary fluid (dialysis bag, HPLC). In kind it is physicochemical. Conditions: simulated pulmonary fluid pH 7.4, 37° C. The procedure: With the triacetyl andrographolide nanocrystal prepared in Example 1 as an experimental subject, an activated dialysis bag with a molecular weight cut-off of 8000-14000 Da was taken, 5 mL of a simulated pulmonary fluid was added into the dialysis bag, the triacetyl andrographolide nanocrystal (0.5 mg by triacetyl andrographolide) was precisely weighed and dispersively suspended in the above simulated pulmonary fluid, two ends were tightened, then the dialysis bag was put into a conical flask containing 100 mL of a simulated pulmonary fluid in-vitro release medium (composition of the medium as shown in Table 1), the conical flask was placed in a constant-temperature gas bath shaker (37° C., 120 r/min), 2 mL of a released liquor was taken at each of different time points (0.5 h, 1 h, 2 h, 4 h, 6 h, 8 h, 12 h, 24 h, 36 h and 48 h) and was filtered through a 0.22 μm filter membrane, subsequence filtrates were taken to determine drug concentrations by adopting an HPLC method, and at the same time, the release medium was supplemented with 2 mL of an isothermal simulated pulmonary fluid. A cumulative release percentage was calculated according to determined results, and a release curve of the nanocrystal was drawn. […]

On the set-up of series [2]: species or system SD rats. As to conditions: rat, in vivo, po, 200 mg/kg. The procedure: The triacetyl andrographolide nanocrystal obtained in Example 1 was adopted, and a total of 12 SD rats were used as test objects (half female and half male, 200±20 g).
The rats were randomly divided into 2 groups (n=6, half female and half male) by body weight before a test was started. The test was carried out after fasting without water-deprivation for 12 h, one group was fed with a triacetyl andrographolide active pharmaceutical ingredient suspension (dosage of 200 mg/kg) via intragastric administration, and the other group was fed with a triacetyl andrographolide nanocrystal suspension (50 mg/kg by triacetyl andrographolide) via intragastric administration.
With an active pharmaceutical ingredient as reference, relative bioavailability of the triacetyl andrographolide nanocrystal was calculated according to the following formula:
[formula] • where AUC0-t, nanocrystal and AUC0-t, active pharmaceutical ingredient corresponded to areas under the plasma concentration-time curves at a moment 0-t of the triacetyl andrographolide nanocrystal and the active pharmaceutical ingredient respectively; and
Doseactive pharmaceutical ingredient and Dosenanocrystal corresponded to intragastric administration dosages of the triacetyl andrographolide active pharmaceutical ingredient and the nanocrystal respectively.
• where MRT(0-t) is a mean value of in-vivo retention time of drug molecules, representing time required for eliminating 63.2% of drugs in vivo; • T1/2 is a terminal elimination half-life, which is time required for a terminal phase plasma concentration to decrease by half; • Tmax is time required to reach a peak concentration of drug after administration, this parameter reflects a speed at which a drug enters the body, and the faster the absorption rate, the shorter the time to peak; • Cmax is a peak concentration of drug, the highest value of a plasma concentration occurring after administration, and this parameter is an important indicator reflecting a rate and degree of drug absorption in the body; • Vd is a proportionality constant between a drug dosage in the body and a plasma concentration when a drug reaches dynamic equilibrium in the body, usually with Las the unit, and this parameter reflects the degree of a distribution range of the drug in the body, with higher values indicating the wider distribution; and an apparent volume of distribution is numerically obtained by a ratio of a clearance rate to a terminal elimination rate; • F is bioavailability, a measure for a speed and degree at which a drug is absorbed into blood circulation, and is an important indicator for evaluating a degree of drug absorption; and the bioavailability may be divided into absolute bioavailability and relative bioavailability, the former is used to compare an absorption difference between two administration routes, while the latter is used to evaluate an absorption difference between two preparations; and • CL is a clearance rate, a value of an apparent volume of distribution of drugs cleared from the body per unit time, usually with L/h as the unit, and this parameter is an important parameter reflecting the body's drug disposal characteristics and is closely related to physiological factors; and the clearance rate is obtained according to a ratio of a dosage to AUC(0-∞).

For series [3], the system named is LPS-induced RAW264.7 cell. As to conditions: supernatant of LPS-induced RAW264.7 cell culture fluid; cited from earlier work.
The subject of series [4] is rabbits with endotoxic shock. Conditions: serums of rabbits with endotoxic shock; cited from earlier work.
The conditions of series [5]: in vivo; cited from earlier work.

As to `C=C1CC[C@@H]2[C@](C)(COC(C)=O)[C@H](OC(C)=O)CC[C@@]2(C)[C@@H]1C/C=C1/C(=O)OC[C@H]1OC(C)=O` [active pharmaceutical ingredient, triacetyl andrographolide], in series [1] (12 h), the cumulative release percentage is listed as 39%. The cumulative release percentage in series [1] (48 h) is given as 42%. For the same compound, in series [2], the AUC(0-t) – broadly, the area under the concentration-time curve up to a stated or last time point – was 1.924 ± 0.2779 µg·h/mL; the CL/F (usually clearance divided by bioavailability, as obtained after extravascular dosing) was 120 L/h/kg; the Cmax (as a rule, the highest concentration seen after dosing) is 0.4951 ± 0.1726 µg/mL; the “MRT(0-t)” value came to 8.07 ± 0.22 h. For the same compound, in series [2], the T1/2 was 4.79 ± 1.81 h, the Tmax (commonly the time at which the peak concentration occurs) came out at 6.67 ± 0.47 h and the Vd amounted to 800 ± 360 L/kg. In series [3], the “content of IL-1β” value was “can reduce” and the “content of TNF-α” value is reported as “can reduce”. In series [4], the “content of IL-1β” value is reported as “can reduce” and the “content of TNF-α” value is given as “can reduce”. In addition, in series [5], the absolute bioavailability is on record as 7.19% and the “absolute bioavailability relative to that of andrographolide” value is “more than 7 times”.
